# Key:
# [1] = test system: abdominal aortic aneurysm; assay: Regression of established abdominal aortic aneurysm, administration from Day 7 (Example 3); format: in vivo, rat
# Experimental: SD-male rats of 4 weeks old (70 to 90 G) were used. The rats were subjected to the above-described abdominal aortic aneurysm induction treatment. On Day 7, the abdomen of the rat was opened to confirm the occurrence of an abdominal aortic aneurysm, the vessel diameter was measured, and then the abdomen was closed. Subsequently, a control group was fed normal feed and water, while a tricaprin administration group was fed tricaprin in an amount of 1,145 MG/KG/day in addition to the normal feed.
# Seven days after the abdominal closure (Day 14 after the abdominal aortic aneurysm induction treatment), the abdomen was opened again, and the blood vessel diameter was measured. Some rats of the control group were not subjected to laparotomy on Day 14 and continued to be fed normal feed and water. The amount of the neutral fats in the blood vessel, the amount of lipids in the blood, the blood glucose level, and the body weight were measured from the day when the abdominal aortic aneurysm induction treatment was performed.
# FIGS. 3(A), 3(B), and 3(C) show the control group (depicted as “CONTROL”), and FIGS. 3(D), 3(E), and 3(F) show the tricaprin administration group (depicted as “C10-TG”).
# Photographs under “DAY 0” are photographs taken when the abdominal aortic aneurysm induction treatment was performed (FIG. 3(A) and FIG. 3(D)). […]
# [2] = test system: abdominal aortic aneurysm; assay: Abdominal aortic aneurysm induction model, preventive forced administration (Examples 1 and 2); format: in vivo, rat; details: for Rupture rate of abdominal aortic aneurysm: among rats with observed aneurysm, control group 28.6; for Rupture confirmed (abdominal aortic aneurysm) / Rupture not confirmed (abdominal aortic aneurysm): number of rats among rats with observed aneurysm; for Survival rate: Example 2, FIG. 1; for Diameter of the aorta in the abdominal aortic aneurysm induction part: Example 2, FIG. 2, after completion of the test, control group about 4 MM
# Experimental: SD-male rats of 4 weeks old (70 to 90 G) were used. Eighteen rats and eight rats were prepared as a control group and a medium chain fatty acid administration group, respectively.
# Upon arrival, all rats were preliminarily fed normal feed without additional supplements for one week. Then, the medium chain fatty acid administration group was fed normal feed and forcibly administered with high-content neutral fats (decanoic acid occupied 98% of constituent fatty acids) in an amount of 1,145 MG/KG body-weight/day. The control group was fed normal feed and forcibly administered with water in an amount of 1,145 MG/KG body-weight/day.
# In this test, the medium chain fatty acid was fed in the form of tricaprin. Tricaprin is a substance in which decanoic acid (C10), a linear saturated fatty acid having 10 carbon atoms, is bonded to glycerol. Thus, the high-content neutral fats are medium chain fatty acids of the present invention.
# From the second week after the arrival, all rats were fed high-fat feed. Then, the medium chain fatty acid administration group was forcibly administered with the high-content neutral fats in an amount of 1,145 MG/KG body-weight/day in addition to the high-fat feed. Furthermore, the control group was forcibly administered with water in an amount of 1,145 MG/KG body-weight/day in addition to the high-fat feed.
# Three weeks after the arrival, an abdominal aortic aneurysm induction treatment was performed. In the abdominal aortic aneurysm induction treatment, a catheter is inserted in the rat abdominal aorta and the inserted catheter is ligated with the abdominal aorta. The treatment was performed according to the method disclosed in PTL 3.
# After that, for the next four weeks, the control group had been fed the high-fat feed and forcibly administered with water in an amount of 1,145 MG/KG body-weight/day. Furthermore, the medium chain fatty acid administration group had been fed the high-fat feed and forcibly administered with the high-content neutral fats. Then, four weeks after the abdominal aortic aneurysm induction treatment, the rats were dissected.
# Note that the abdominal aortic aneurysm was determined to have occurred if the blood vessel at the site where the abdominal aortic aneurysm induction treatment was performed dilated to twice or more its original thickness.
# Next, test results obtained by using tricaprin (an ester of three decanoic acids and glycerol) and tricaprylin (an ester of three octanoic acids of C8 and glycerol) as the medium chain fatty acid is shown. The animal model preparation method is the same as that in Example 1. A group in which tricaprin (C10) was given is referred to as a tricaprin administration group and a group in which tricaprylin (C8) was given is referred to as a tricaprylin administration group.
# Twenty-three, eleven, and eighteen model animals were prepared as a control group, the tricaprylin administration group, and the tricaprin administration group, respectively.
# [3] = Example 2, number of rats (tricaprylin 11, tricaprin 18 animals)
# [4] = Example 2, number of rats (tricaprylin 11, tricaprin 18 animals), dilated to twice or more original thickness
SMILES,"Maximum aneurysm diameter ([1]; Day 14, 1,145 MG/KG/day from Day 7, 2.79 MM on Day 7 before administration, control 2.81 to 3.59 MM) [MM]","Weight gain rate versus control group ([1]; Example 3, measured from the day of induction treatment)","Frequency of occurrence of abdominal aortic aneurysm ([2]; Example 1, 1,145 MG/KG body-weight/day, control group 38.9) [%]",Rupture rate of abdominal aortic aneurysm ([2]; Example 1) [%],Rupture confirmed (abdominal aortic aneurysm) ([2]; Example 1),Rupture not confirmed (abdominal aortic aneurysm) ([2]; Example 1),"Occurrence not confirmed (abdominal aortic aneurysm) ([2]; Example 1, number of rats of 8, 1,145 MG/KG body-weight/day forced administration, high-fat feed, dissected four weeks after induction)","Occurrence confirmed (abdominal aortic aneurysm) ([2]; Example 1, number of rats of 8, vessel dilated to twice or more its original thickness, 1,145 MG/KG body-weight/day)",Survival rate ([2]; during the test period) [%],Diameter of the aorta in the abdominal aortic aneurysm induction part [2],Rupture rate of abdominal aortic aneurysm ([2]; Example 2) [%],"Frequency of occurrence of abdominal aortic aneurysm ([2]; Example 2, control group 30.4) [%]","Occurrence not confirmed (abdominal aortic aneurysm) [2, 3]","Occurrence confirmed (abdominal aortic aneurysm) [2, 4]",Rupture confirmed (abdominal aortic aneurysm) ([2]; Example 2),Rupture not confirmed (abdominal aortic aneurysm) ([2]; Example 2),"Survival rate ([2]; until Day 26 after induction treatment, control declined on Day 17) [%]"
"CCCCCCCCCC(=O)OCC(COC(=O)CCCCCCCCC)OC(=O)CCCCCCCCC [Tricaprin, tricaprin]",1.89,no difference,12.5,0,0,1,7,1,100,about 2.2 MM,0,5.6,17,1,0,1,
"CCCCCCCC(=O)OCC(COC(=O)CCCCCCC)OC(=O)CCCCCCC [Tricaprylin, tricaprylin]",,,,,,,,,,about 3.5 MM,33.3,27.3,8,3,1,2,100

# From patent US20260207537A1, “PHARMACEUTICAL COMPOSITION FOR PREVENTION AND TREATMENT OF AORTIC ANEURYSM, AND PROCESSED FOOD” (priority 2020, published 2026)
